# Experimental data as given in patent US20230183266A1, “CRYSTALLINE FORMS OF RET INHIBITOR AND PREPARATION THEREOF” (LOXO ONCOLOGY, INC., priority 2021, published 2023).
# Experiments:
# Format in all cases: physicochemical
# [1] = solubility of crystalline forms in organic solvents
# Description: Forms A and B have similar solubilities.
# [2] = hygroscopicity of the anhydrous polymorphs; conditions: Form A compared with Form B
# Description: (§1) In some embodiments, removal of the solvent molecule(s) from selpercatinib in solvated form can provide for selpercatinib Form A.
# [3] = solid-form stability (thermodynamic stability, form conversion on storage, isolation and drying)
# Description: as §1
# As noted above, selpercatinib can form solvates; and it can also form metastable solid forms, both of which are generally not stable on drying. […] The solvates and metastable forms usually revert to Form A during isolation and/or drying, although films or amorphous material occasionally form. The chloroform and 1,4-dioxane solvates were stable upon isolation/drying. Thus, one strategy for preparing selpercatinib Form A is to convert amorphous selpercatinib and/or selpercatinib Form B into a solvate and then desolvating the solvate, to afford Form A.
# In one preferred embodiment, the Form A material is washed with MTBE or heptane and then dried under vacuum at a temperature of about 40 to about 45° C.
# The formation of the solvate appears to remove any dependence on, or effect from, the seed crystal form.
SMILES,solubility in anisole ([1]; anisole),"solubility in many organic solvents ([1]; 25° C., methyl ethyl ketone (MEK), acetone, many alcohol based solvents)","solubility ([1]; organic solvents: dichloromethane, dimethylsulfoxide, organic solvent or mixture, moderate solubility, 25° C., DCM, DMSO, THF) [mg/mL]",hygroscopicity [2],thermodynamic stability ([3]; Form A compared with Form B),interconversion of polymorphs ([3]; typical storage or preparative conditions),"form conversion on drying of wet cake ([3]; wet cake dried at 45° C., ambient pressure, over several days)"
"COc1ccc(CN2C3CC2CN(c2ccc(-c4cc(OCC(C)(C)O)cn5ncc(C#N)c45)cn2)C3)cn1 [Form B, 6-(2-hydroxy-2-methylpropoxy)-4-(6-(6-((6-methoxypyridin-3-yl)methyl)-3,6-diazabicyclo[3.1.1]heptan-3-yl)pyridin-3-yl)pyrazolo[1,5-a]pyridine-3-carbonitrile]",almost no solubility,–,–,–,–,–,–
"COc1ccc(CN2C3CC2CN(c2ccc(-c4cc(OCC(C)(C)O)cn5ncc(C#N)c45)cn2)C3)cn1 [Form A, 6-(2-hydroxy-2-methylpropoxy)-4-(6-(6-((6-methoxypyridin-3-yl)methyl)-3,6-diazabicyclo[3.1.1]heptan-3-yl)pyridin-3-yl)pyrazolo[1,5-a]pyridine-3-carbonitrile]",–,poor,3 to 30,slightly more hygroscopic,thermodynamically less stable,do not readily inter-convert,slowly converted the Form A to Form B
